This is an account of results in patent US9376392B2, “2-(tert-butoxy)-2-(7-methylquinolin-6-yl) acetic acid derivatives for treating AIDS” (Gilead Sciences, Inc., priority 2012, dated 2016).

Each structure is given as a SMILES string.

One test concerns HIV-IIIb (MT-4 cells). Put plainly: Test A: Antiviral Assays in MT4 Cells. The class given is cell-based. As to conditions: MT4, 120 h, MT-4 cells infected with HIV-IIIb, 5 days of incubation, CellTiter-Glo readout. As for the experimental part:
The antiviral properties of a compound disclosed herein may be determined using Test A described below.
Test A: Antiviral Assays in MT4 Cells
For the antiviral assay utilizing MT-4 cells, 0.4 μL of […] test concentration of 3-fold serially diluted compound in DMSO was added to 40 μL of cell growth medium (RPMI 1640, 10% FBS, 1% penicillin/Streptomycin, 1% L-Glutamine, 1% HEPES) in each well of 384-well assay plates (10 concentrations) in quadruplicate.
1 mL aliquots of 2×10e6 MT-4 cells are pre-infected for 1 and 3 hrs respectively, @ 37° C. with 25 μL (MT4) or of either cell growth medium (mock-infected) or a fresh 1:250 dilution of an HIV-IIIb concentrated ABI stock (0.004 m.o.i. for MT4 cells). Infected and uninfected cells are diluted in cell growth medium and 35 μL of 2000 (for MT4) cells is added to each well of the assay plates.
Assay plates were then incubated in a 37° C. incubator. After 5 days of incubation, […] 2× concentrated CellTiter-Glo™ Reagent (catalog #G7573, Promega Biosciences, Inc., Madison, Wis.) was added to each well of the assay plate. Cell lysis was carried out by incubating at room temperature for 2-3 min and then chemiluminescence was read using the Envision reader (PerkinElmer).
With `Cc1cc2c(ccc(=O)n2Cc2ccc(C(F)(F)F)cc2)c(-c2ccc3c4c(ccnc24)CCO3)c1[C@H](OC(C)(C)C)C(=O)O` (atropisomer, axis not shown) [Example 11, (S)-2-tert-Butoxy-2-((R)-5-(2,3-dihydropyrano[4,3,2-de]quinolin-7-yl)-7-methyl-2-oxo-1-(4-(trifluoromethyl)benzyl)-1,2-dihydroquinolin-6-yl)acetic acid], a half-maximal response (EC50) required 983 nM.

In the case of `Cc1cc2c(ccc(=O)n2Cc2cccc(C(F)F)c2)c(-c2ccc3c4c(ccnc24)CCO3)c1[C@H](OC(C)(C)C)C(=O)O` (atropisomer, axis not shown) [Example 30, (S)-2-tert-Butoxy-2-((R)-1-(3-(difluoromethyl)benzyl)-5-(2,3-dihydropyrano[4,3,2-de]quinolin-7-yl)-7-methyl-2-oxo-1,2-dihydroquinolin-6-yl)acetic acid], the EC50 amounted to 34.7 nM.

As to `Cc1cc2nc(OCc3cccc(C(F)(F)F)c3)ccc2c(-c2ccc3c4c(ccnc24)CCO3)c1[C@H](OC(C)(C)C)C(=O)O` (atropisomer, axis not shown) [Example 3, (S)-2-tert-Butoxy-2-((R)-5-(2,3-dihydropyrano[4,3,2-de]quinolin-7-yl)-7-methyl-2-(3-(trifluoromethyl)benzyloxy)quinolin-6-yl)acetic acid], it took 123 nM to reach a half-maximal effect (EC50).

`CC(=O)Nc1ccc2c(-c3ccc4c5c(ccnc35)CCO4)c([C@H](OC(C)(C)C)C(=O)O)c(C)cc2n1` (atropisomer, axis not shown) [Example 48, (S)-2-((R)-2-Acetamido-5-(2,3-dihydropyrano[4,3,2-de]quinolin-7-yl)-7-methylquinolin-6-yl)-2-tert-butoxyacetic acid] displayed an EC50 of 361 nM. Compared with the last compound, the EC50 is about 2.9-fold higher.

For `Cc1cc2nc(OCc3ccccc3S(C)(=O)=O)ccc2c(-c2ccc3c4c(ccnc24)CCO3)c1[C@H](OC(C)(C)C)C(=O)O` (atropisomer, axis not shown) [Example 10, (S)-2-tert-Butoxy-2-((R)-5-(2,3-dihydropyrano[4,3,2-de]quinolin-7-yl)-7-methyl-2-(2-(methylsulfonyl)benzyloxy)quinolin-6-yl)acetic acid], the EC50 was 8.63 nM.

For the compound `Cc1cc2c(ccc(=O)n2Cc2cnccn2)c(-c2ccc3c4c(ccnc24)CCO3)c1[C@H](OC(C)(C)C)C(=O)O` (atropisomer, axis not shown) [Example 23, (S)-2-tert-Butoxy-2-((R)-5-(2,3-dihydropyrano[4,3,2-de]quinolin-7-yl)-7-methyl-2-oxo-1-(pyrazin-2-ylmethyl)-1,2-dihydroquinolin-6-yl)acetic acid], the EC50 came to 383 nM.

`Cc1cc2c(ccc(=O)n2Cc2ccc3c(cnn3C)c2)c(-c2ccc3c4c(ccnc24)CCO3)c1[C@H](OC(C)(C)C)C(=O)O` (atropisomer, axis not shown) [Example 29, (S)-2-tert-Butoxy-2-((R)-5-(2,3-dihydropyrano[4,3,2-de]quinolin-7-yl)-7-methyl-1-((1-methyl-1H-indazol-5-yl)methyl)-2-oxo-1,2-dihydroquinolin-6-yl)acetic acid] registered an EC50 of 85.5 nM.

With `Cc1cc2nc(C(C)(F)F)ccc2c(-c2ccc3c4c(ccnc24)CCO3)c1[C@H](OC(C)(C)C)C(=O)O` (atropisomer, axis not shown) [Example 52, (S)-2-tert-Butoxy-2-((R)-2-(1,1-difluoroethyl)-5-(2,3-dihydropyrano[4,3,2-de]quinolin-7-yl)-7-methylquinolin-6-yl)acetic acid], the EC50 turned out to be 65.1 nM. The EC50 values of the last two compounds are within 1.5-fold of each other.

On to `Cc1cc2nc(NC(=O)c3ccccc3)ccc2c(-c2ccc3c4c(ccnc24)CCO3)c1[C@H](OC(C)(C)C)C(=O)O` (atropisomer, axis not shown) [Example 49, (S)-2-((R)-2-Benzamido-5-(2,3-dihydropyrano[4,3,2-de]quinolin-7-yl)-7-methylquinolin-6-yl)-2-tert-butoxyacetic acid], for which a half-maximal effect (EC50) was put at 134 nM.

The compound `Cc1cc2nc(C(C)(C)O)ccc2c(-c2ccc3c4c(ccnc24)CCO3)c1[C@H](OC(C)(C)C)C(=O)O` (atropisomer, axis not shown) [Example 51, (S)-2-tert-Butoxy-2-((R)-5-(2,3-dihydropyrano[4,3,2-de]quinolin-7-yl)-2-(2-hydroxypropan-2-yl)-7-methylquinolin-6-yl)acetic acid] had an EC50 of 186 nM. This EC50 and that of the compound before are within 1.5-fold of each other.

Turning to `Cc1cc2c(ccc(=O)n2Cc2ccc(OC(F)(F)F)cc2)c(-c2ccc3c4c(ccnc24)CCO3)c1[C@H](OC(C)(C)C)C(=O)O` (atropisomer, axis not shown) [Example 16, (S)-2-tert-Butoxy-2-((R)-5-(2,3-dihydropyrano[4,3,2-de]quinolin-7-yl)-7-methyl-2-oxo-1-(4-(trifluoromethoxy)benzyl)-1,2-dihydroquinolin-6-yl)acetic acid], the EC50 worked out at 1610 nM.

As to `COc1cc(Cn2c(=O)ccc3c(-c4ccc5c6c(ccnc46)CCO5)c([C@H](OC(C)(C)C)C(=O)O)c(C)cc32)cc(OC)c1` (atropisomer, axis not shown) [Example 33, (S)-2-tert-Butoxy-2-((R)-5-(2,3-dihydropyrano[4,3,2-de]quinolin-7-yl)-1-(3,5-dimethoxybenzyl)-7-methyl-2-oxo-1,2-dihydroquinolin-6-yl)acetic acid], the EC50 came to 133 nM.

In turn, `CCCCCC(C)(C)O[C@H](C(=O)O)c1c(C)cc2nc(C)ccc2c1-c1ccc2c3c(ccnc13)CCO2` (atropisomer, axis not shown) [Example 43, (S)-2-((S)-5-(2,3-Dihydropyrano[4,3,2-de]quinolin-7-yl)-2,7-dimethylquinolin-6-yl)-2-(2-methylheptan-2-yloxy)acetic acid] displayed an EC50 of 39400 nM.

As to `Cc1cc2nc(OCc3ccc(C(N)=O)cc3)ccc2c(-c2ccc3c4c(ccnc24)CCO3)c1[C@H](OC(C)(C)C)C(=O)O` (atropisomer, axis not shown) [Example 8, (S)-2-tert-Butoxy-2-((R)-2-(4-carbamoylbenzyloxy)-5-(2,3-dihydropyrano[4,3,2-de]quinolin-7-yl)-7-methylquinolin-6-yl)acetic acid], the EC50 turned out to be 36.8 nM.

`Cc1cc2nc(OCc3ccc(S(C)(=O)=O)cc3)ccc2c(-c2ccc3c4c(ccnc24)CCO3)c1[C@H](OC(C)(C)C)C(=O)O` (atropisomer, axis not shown) [Example 9, (S)-2-tert-Butoxy-2-((R)-5-(2,3-dihydropyrano[4,3,2-de]quinolin-7-yl)-7-methyl-2-(4-(methylsulfonyl)benzyloxy)quinolin-6-yl)acetic acid] had an EC50 of 21.2 nM.

In turn, `Cc1cc2c(ccc(=O)n2-c2cccc(S(C)(=O)=O)c2)c(-c2ccc3c4c(ccnc24)CCO3)c1[C@H](OC(C)(C)C)C(=O)O` (atropisomer, axis not shown) [Example 37, (S)-2-tert-Butoxy-2-((R)-5-(2,3-dihydropyrano[4,3,2-de]quinolin-7-yl)-7-methyl-1-(3-(methylsulfonyl)phenyl)-2-oxo-1,2-dihydroquinolin-6-yl)acetic acid] returned an EC50 of 8430 nM.

`Cc1cc2c(ccc(=O)n2Cc2cncnc2)c(-c2ccc3c4c(ccnc24)CCO3)c1[C@H](OC(C)(C)C)C(=O)O` (atropisomer, axis not shown) [Example 25, (S)-2-tert-butoxy-2-((R)-5-(2,3-dihydropyrano[4,3,2-de]quinolin-7-yl)-7-methyl-2-oxo-1-(pyrimidin-5-ylmethyl)-1,2-dihydroquinolin-6-yl)acetic acid] showed an EC50 of 472 nM.

For `Cc1cc2c(ccc(=O)n2Cc2ccccc2OC(F)(F)F)c(-c2ccc3c4c(ccnc24)CCO3)c1[C@H](OC(C)(C)C)C(=O)O` (atropisomer, axis not shown) [Example 15, (S)-2-tert-Butoxy-2-((R)-5-(2,3-dihydropyrano[4,3,2-de]quinolin-7-yl)-7-methyl-2-oxo-1-(2-(trifluoromethoxy)benzyl)-1,2-dihydroquinolin-6-yl)acetic acid], the EC50 amounted to 359 nM. The EC50 values of the last two compounds are within 1.5-fold of each other.

For the compound `COc1cccc(Cn2c(=O)ccc3c(-c4ccc5c6c(ccnc46)CCO5)c([C@H](OC(C)(C)C)C(=O)O)c(C)cc32)c1` (atropisomer, axis not shown) [Example 26, (S)-2-tert-butoxy-2-((R)-5-(2,3-dihydropyrano[4,3,2-de]quinolin-7-yl)-1-(3-methoxybenzyl)-7-methyl-2-oxo-1,2-dihydroquinolin-6-yl)acetic acid], the EC50 is 99.3 nM. Compared with the last compound, the EC50 is about 3.6-fold lower.

Still in this test, the particulars now being: MT-4 cells infected with HIV-IIIb, 5 days of incubation, CellTiter-Glo readout.
`CCC(C)(C)O[C@H](C(=O)O)c1c(C)cc2nc(C)ccc2c1-c1ccc2c3c(ccnc13)CCO2` (atropisomer, axis not shown) [Example 44, (S)-2-((R)-5-(2,3-Dihydropyrano[4,3,2-de]quinolin-7-yl)-2,7-dimethylquinolin-6-yl)-2-(tert-pentyloxy)acetic acid] came in with an EC50 of 11.7 nM.

`CCCC(C)(C)O[C@H](C(=O)O)c1c(C)cc2nc(C)ccc2c1-c1ccc2c3c(ccnc13)CCO2` (atropisomer, axis not shown) [Example 39, (2S)-2-((R)-5-(2,3-Dihydropyrano[4,3,2-de]quinolin-7-yl)-2,7-dimethylquinolin-6-yl)-2-(2-methylpentan-2-yloxy)acetic acid] came in with an EC50 of 12.3 nM.
